These results are taken from ChEMBL document CHEMBL1201862, “PubChem BioAssay data set” (2004).

Test systems include NCI-H522; A498; SK-MEL-28; HCT-15; SK-OV-3; EKVX; A549; OVCAR-5; SW-620; HCT-116; HCC 2998; UO-31; MCF7; SK-MEL-5; SK-MEL-2; MOLT-4; NCI-H460; HT-29; IGROV-1; SF-268.
What all share (assay): inhibition of tumour cell growth, NCI panel, 48 h

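Assay format: 96-well plates, 48-hour exposure. At the GI50, growth is halved.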 Active and inactive are the calls of the source. Cut-off read from the data, not from the text of the source: active = GI50 up to about 1.1 µM and inactive = higher.

As for `COc1cc(/C=C/c2ccc(OC)c(OC)c2)oc(=O)c1`, the GI50 in the test on NCI-H522 is > 195 µM (inactive); in the test with A498, > 169 µM (inactive); in the test on SK-MEL-28, > 250 µM (inactive); in the test on HCT-15, over 250 µM; in the test with SK-OV-3, > 250 µM (inactive); in the test on EKVX, > 116 µM (inactive). The GI50 with A549, with OVCAR-5, in the test with SW-620, in the test on HCT-116, with HCC 2998 and in the test with UO-31 was > 250 µM (inactive) in each case. Moreover, the GI50 with MCF7 was > 250 µM (inactive); in the test on SK-MEL-5 it was > 250 µM (inactive); in the test on SK-MEL-2, > 213 µM (inactive); in the test with MOLT-4 it was > 250 µM (inactive); in the test on NCI-H460, > 230 µM (inactive); in the test with HT-29 it was > 250 µM (inactive). The GI50 in the test on IGROV-1 was > 220 µM (inactive); with SF-268, > 170 µM (inactive).
Consider `O=NN(CCCl)C(=O)N[C@H]1CC[C@@H](O)CC1`, for which the GI50 with NCI-H522 was 20.8 µM (inactive); in the test with A498 it was > 100 µM (inactive); in the test on SK-MEL-28, 25.3 µM (inactive); with HCT-15 it was 21.6 µM; in the test with SK-OV-3 it was > 100 µM (inactive); in the test on EKVX, 33.6 µM (inactive). Further, the GI50 with A549 is 81.3 µM (inactive); in the test with OVCAR-5, > 100 µM (inactive); in the test on SW-620, 22.6 µM (inactive); with HCT-116, 34 µM (inactive); with HCC 2998, 81.5 µM (inactive); in the test with UO-31 it was 72.4 µM (inactive). The GI50 with MCF7 was 31.6 µM (inactive); with SK-MEL-5, 52.4 µM (inactive); in the test on SK-MEL-2 it was > 100 µM (inactive); with MOLT-4, 20.6 µM (inactive); in the test with NCI-H460, 28.3 µM (inactive); with HT-29, 60.3 µM (inactive). The values for the GI50 in the test with IGROV-1 and with SF-268 were 68.4 µM (inactive) and 13.6 µM (inactive), respectively.
Consider `CCOC(=O)C1=C(C)N2CCCOC2(C)C(C(=O)OC)C1c1cccc([N+](=O)[O-])c1` (stereo unspecified), for which the GI50 is > 100 µM (inactive) in the test with SK-MEL-28; 50 µM (inactive) in the test with EKVX; 64.3 µM (inactive) in the test on A549; > 100 µM (inactive) in the test with SW-620; 49.7 µM (inactive) with HCT-116; > 100 µM (inactive) in the test with HCC 2998. Besides, the GI50 was 51.6 µM (inactive) in the test with UO-31; 39.6 µM (inactive) in the test on SK-MEL-5; > 100 µM (inactive) with SK-MEL-2; 34.3 µM (inactive) in the test on MOLT-4; 57.4 µM (inactive) in the test on NCI-H460; > 100 µM (inactive) in the test with HT-29. For the same compound, the GI50 with IGROV-1 and in the test with SF-268 was > 100 µM (inactive) each time.
Turning to `CCOC(=O)c1ccc(C)c(/N=N/N(C)C)c1`, the GI50 is > 100 µM (inactive) in the test with NCI-H522; > 100 µM (inactive) with A498; > 100 µM (inactive) in the test on SK-MEL-28; over 100 µM in the test on HCT-15; > 100 µM (inactive) in the test on SK-OV-3; > 100 µM (inactive) in the test on EKVX. The GI50 in the test on A549 is > 100 µM (inactive); in the test on OVCAR-5, > 100 µM (inactive); in the test on SW-620, > 100 µM (inactive); with HCT-116 it was > 100 µM (inactive); with HCC 2998, > 100 µM (inactive); in the test with UO-31 it was 79.8 µM (inactive). The GI50 in the test with SK-MEL-5, with SK-MEL-2, with MOLT-4, in the test with NCI-H460, in the test with HT-29 and in the test with IGROV-1 was > 100 µM (inactive) each time. The GI50 in the test on SF-268 was 82.8 µM (inactive).
Turning to `COc1cccc(N2C(Cl)C(=O)C2c2c[nH]c3ccccc23)c1` (stereo unspecified), the GI50 in the test with NCI-H522 is > 100 µM (inactive); with SK-MEL-28 it was > 100 µM (inactive); with SK-OV-3 it was > 100 µM (inactive); in the test on EKVX, > 100 µM (inactive); in the test with A549, > 100 µM (inactive); with OVCAR-5 it was 46.1 µM (inactive). In addition, the GI50 in the test on SW-620 was > 100 µM (inactive); in the test with HCT-116, > 100 µM (inactive); in the test on UO-31, 42.8 µM (inactive); in the test with SK-MEL-5, > 100 µM (inactive); in the test with SK-MEL-2, > 100 µM (inactive); in the test with MOLT-4, > 100 µM (inactive). The GI50 in the test on NCI-H460, in the test on HT-29, in the test on IGROV-1 and in the test with SF-268 was > 100 µM (inactive) throughout.
With `CC(C)NC(=O)OCc1c(CO)c2c(n1C)-c1ccccc1CC2`, the GI50 with NCI-H522 was 16.7 µM (inactive); in the test on A498, 55.5 µM (inactive); in the test with SK-MEL-28, 25.9 µM (inactive); with HCT-15, 23.3 µM; in the test on SK-OV-3 it was 55.1 µM (inactive); in the test with EKVX, 69.2 µM (inactive). Further, the GI50 was 40.6 µM (inactive) in the test with A549; 80.7 µM (inactive) with OVCAR-5; 20 µM (inactive) in the test with SW-620; 17.2 µM (inactive) with HCT-116; 19.9 µM (inactive) in the test on HCC 2998; 23.7 µM (inactive) in the test with UO-31. In addition, the GI50 in the test on MCF7 is 37.6 µM (inactive); with SK-MEL-5 it was 27.2 µM (inactive); with SK-MEL-2 it was 37.1 µM (inactive); with MOLT-4 it was 14.3 µM (inactive); in the test on NCI-H460 it was 25.5 µM (inactive); in the test on HT-29, 24.5 µM (inactive). Moreover, the figures for the GI50 in the test on IGROV-1 and in the test with SF-268 were 27.5 µM (inactive) and 36.1 µM (inactive), respectively.
For the compound `CCOC(=O)Cn1c(=O)c(C)cn(COCCO)c1=O`, the GI50 in the test with NCI-H522, in the test with A498, in the test on SK-MEL-28, in the test on EKVX, in the test on A549 and in the test with OVCAR-5 was > 100 µM (inactive) in each case. The GI50 in the test on SW-620, in the test with HCC 2998, with UO-31, with MCF7, in the test on SK-MEL-5 and in the test with SK-MEL-2 was > 100 µM (inactive) each time. In addition, the GI50 in the test on MOLT-4, with NCI-H460, with HT-29, in the test with IGROV-1 and with SF-268 was > 100 µM (inactive) in each case.
`Cc1ccc(C2COc3cc(O)c(O)cc3C2)cc1` (stereo unspecified): the GI50 in the test with NCI-H522 was 4.06 µM (inactive); in the test on A498, 86.7 µM (inactive); with SK-MEL-28, 13.1 µM (inactive); in the test on HCT-15, 15 µM; in the test with SK-OV-3, 139 µM (inactive); in the test with EKVX, 20.4 µM (inactive). For the same compound, the GI50 in the test on A549 was 43.6 µM (inactive); in the test on OVCAR-5 it was 94 µM (inactive); in the test on SW-620, 11.1 µM (inactive); in the test with HCT-116, 12.4 µM (inactive); in the test on HCC 2998, 35.1 µM (inactive); in the test with UO-31, 30 µM (inactive). Besides, the GI50 was 25.9 µM (inactive) with MCF7; 18.9 µM (inactive) in the test with SK-MEL-5; 19.2 µM (inactive) in the test on SK-MEL-2; 4.48 µM (inactive) with MOLT-4; 55.3 µM (inactive) in the test with NCI-H460; 29.7 µM (inactive) in the test on HT-29. The GI50 with IGROV-1 is 14.6 µM (inactive); with SF-268, 13.2 µM (inactive).
On to `CCCCS(=N)(=O)CC[C@H](N)C(=O)O` (stereo partly specified) [BUTHIONINE SULFOXIME], for which the GI50 with NCI-H522 is 140 µM (inactive); in the test with A498 it was 4820 µM (inactive); in the test with SK-MEL-28, > 5000 µM (inactive); in the test on HCT-15, 4250 µM; with SK-OV-3, > 5000 µM (inactive); in the test on EKVX, 1450 µM (inactive). The GI50 is > 5000 µM (inactive) in the test on A549; > 5000 µM (inactive) with OVCAR-5; > 5000 µM (inactive) in the test with SW-620; > 5000 µM (inactive) in the test with HCT-116; > 5000 µM (inactive) in the test on HCC 2998; 2480 µM (inactive) in the test with UO-31. In addition, the GI50 is > 4190 µM (inactive) with MCF7; > 5000 µM (inactive) in the test on SK-MEL-5; > 5000 µM (inactive) in the test with SK-MEL-2; 2550 µM (inactive) in the test with MOLT-4; 4730 µM (inactive) in the test on NCI-H460; > 5000 µM (inactive) in the test on HT-29. Also, the results for the GI50 in the test with IGROV-1 and in the test with SF-268 were 2110 µM (inactive) and 4260 µM (inactive), respectively.
Consider `CCCCCCCCCCCCCCCCSCC(COC)COP(=O)([O-])OCC[N+](C)(C)C` (stereo unspecified) [ILMOFOSINE], for which the GI50 in the test on NCI-H522 is 2.34 µM (inactive); in the test on A498, 6.31 µM (inactive); in the test with SK-MEL-28, 15.5 µM (inactive); with HCT-15 it was 2.88 µM; in the test with SK-OV-3, 15.2 µM (inactive); in the test on EKVX, 14.4 µM (inactive). The GI50 is 7.21 µM (inactive) in the test on A549; 13.3 µM (inactive) with OVCAR-5; 5.78 µM (inactive) with SW-620; 6.76 µM (inactive) with HCT-116; 1.52 µM (inactive) in the test on HCC 2998; 7.69 µM (inactive) in the test with UO-31. Also, the GI50 in the test with MCF7 was 13.2 µM (inactive); in the test on SK-MEL-5, 12.7 µM (inactive); in the test on SK-MEL-2 it was 15.5 µM (inactive); in the test with MOLT-4 it was 2.41 µM (inactive); in the test on NCI-H460 it was 2.5 µM (inactive); with HT-29, 3.09 µM (inactive). Moreover, the GI50 was 1.85 µM (inactive) with IGROV-1 and 7.57 µM (inactive) with SF-268.
